Results reported in patent publication US20110060267A1 (priority 2008, published 2011).

Assays:
[1] = test system: cornea; details: riboflavin drops, UVA 30 minutes, ablated cornea; cited from earlier work
[2] = test system: keratoconus; details: 0.1% riboflavin drops, UVA 3 mW/cm 30 minutes, deepithelialized cornea; cited from earlier work
[3] = buffer; cited from earlier work
[4] = test system: porcine cornea; experiment: Stress-strain analysis of corneal buttons after photoinitiator and UV exposure
[5] = test system: cornea following orthokeratology lens wear; experiment: Corneal stabilization following orthokeratology lens wear; assay type: in vivo; details: treated eye compared to untreated control eye; 0.35M sodium persulfate; one 10-second UV burst 1000 mW
Source text: Subjects are fitted with lenses for orthokeratology. The subjects have one (1) eye treated by exposure to ultraviolet irradiation following pretreatment with a photoinitiator. The contralateral eye is an untreated control. Selection of the eye to be treated is random. Examinations at the initial visit and at each follow-up include unaided visual acuity, slit-lamp examination, refractive error, corneal topography, and corneal hysteresis using the Reichert Ocular Response Analyzer. CH values correlate with reduced mechanical stability. The subject is chosen to receive treatment using short wavelength ultraviolet irradiation following administration of a low concentration photoinitiator. Drops of 0.35M sodium persulfate in 0.02M sodium phosphate buffer at a pH of 7.6-8.0 are administered to the cornea in an applicator designed to limit exposure to the corneal surface. The cornea is then exposed to one 10-second burst of ultraviolet irradiation at an intensity of 1000 mW.

[6] = test system: post-LASIK ectasia; experiment: Treatment for post-LASIK ectasia with photoinitiator and UV irradiation; assay type: in vivo; details: 0.35M sodium persulfate drops; one 10-second UV burst 1000 mW
Procedure: A subject is diagnosed with ectasia following a LASIK procedure. […] Mechanical stability is measured using the Reichert Ocular Response Analyzer. CH values correlate with reduced mechanical stability. Pachymetry of the cornea measures a corneal stromal thickness of 300 microns or less in areas of the cornea, indicative of post-LASIK ectasia. The subject is chosen to receive treatment using short wavelength ultraviolet irradiation following administration of a low concentration photoinitiator. Drops of 0.35M sodium persulfate in 0.02M sodium phosphate buffer at a pH of 7.6-8.0 are administered to the cornea in an applicator designed to limit exposure to the location of keratoconus on the corneal surface. The cornea is then exposed to one 10-second burst of ultraviolet irradiation at an intensity of 1000 mW.

[7] = test system: keratoconus; experiment: Treatment of keratoconus with photoinitiator and UV irradiation; assay type: in vivo; details: 0.35M sodium persulfate drops; one 10-second UV burst 1000 mW
Procedure: A subject is diagnosed with keratoconus in both eyes. They are not able to wear contact lenses. […] Corneal hysteresis measurements are made using the Reichert Ocular Response Analyzer. Corneal hysteresis (CH) is at least 3 numbers less than the normal population. Corneal topography is also conducted to identify the location of keratoconus. The subject is chosen to receive treatment using short wavelength ultraviolet irradiation following administration of a low concentration photoinitiator. Drops of 0.35M sodium persulfate in 0.02M sodium phosphate buffer at a pH of 7.6-8.0 are administered to the cornea in an applicator designed to limit exposure to the location of keratoconus on the corneal surface. The cornea is then exposed to one 10-second burst of ultraviolet irradiation at an intensity of 1000 mW.

**Q.** What does the source list for `Cc1cc2nc3c(=O)[nH]c(=O)nc-3n(C[C@H](O)[C@H](O)[C@H](O)CO)c2cc1C` [riboflavin]?
**A.** corneal biomechanical stiffness [1]: significant increase; clinical treatment of keratoconus [2]: successful

**Q.** For `CC(C#N)(CCC(=O)O)N=NC(C)(C#N)CCC(=O)O` (stereo not drawn) [4,4′-Azobis(4-cyanovaleric acid)], which “10th Half-life ° C. (Solvent)” value [3] is on record?
**A.** 69 (water) ° C.

**Q.** With `O=S(=O)([O-])OOS(=O)(=O)[O-].[Na+].[Na+]` [sodium persulfate] as the compound, how does the “low modulus following exposure to ultraviolet irradiation” value ([4]; 0.35M sodium persulfate 1 min, 10-second bursts UV 1000 mW, 310-400 nm, acetic anhydride softened cornea) read?
**A.** increased

**Q.** And the low modulus ([4]; four 10-second UV exposures)?
**A.** nearly equal to untreated control cornea

**Q.** And the “strengthening (low modulus)” value ([4]; single 10-second UV exposure, FIG. 1)?
**A.** maximum

**Q.** What about the low modulus ([4]; subsequent UV exposures, FIG. 1) of the same compound?
**A.** reduced the increase in low modulus

**Q.** What about the “regression of visual acuity” value [5] of the same compound?
**A.** minimal to no regression

**Q.** What about the “corneal hysteresis (CH)” value [6] of the same compound?
**A.** two-fold increase

**Q.** What about the vision [6] of the same compound?
**A.** significant improvement

**Q.** And the “corneal hysteresis (CH)” value [7]?
**A.** increase

**Q.** And the vision [7]?
**A.** significant improvement
